Measurements reported in patent US20030008015A1, “Polymer controlled delivery of a therapeutic agent” (priority 2000, published 2003).

Assays:
MBT-2 cells [1] = assay: MBT-2 cell proliferation assay (MTS tetrazolium); type: cell-based; settings: 3 days, medium with free or extracted paclitaxel replaced every day, 2.9×10^−6 M to 2.9×10^−9 M or serial dilutions
Method: MBT-2 cells in culture flasks were maintained in Dulbecco's Modified Eagles Medium, 10% fetal calf serum, 100 μg/mL penicillin and 100 μg/mL streptomycin at 37° C. in an atmosphere of 5% CO2.
For proliferation assay experiments, cells were harvested with Trypsin-EDTA and seeded (3,000 cells) on an uncoated 96-well plate (Falcon). A standard curve was established by using paclitaxel solutions that were prepared by first dissolving paclitaxel in dimethylsulfoxide (DMSO), then dilution with culture medium. Final concentration of DMSO was 0.75%. After 1 day, the culture medium was replaced by medium containing free paclitaxel, with concentrations ranging from 2.9×10^−6 M to 2.9×10^−9 M or paclitaxel extracted from a paclitaxel-loaded microparticle, with serial dilutions. […] After 3 days, cell proliferation was measured by a tetrazolium-based assay (CellTiter96, Promega). […] Formazan production, related to enzymatic cell activity, was determined at 490 rim (Biorad plate reader Model 550). Results are expressed as a percentage of growth inhibition compared to cells incubated in the same conditions with medium. Paclitaxel encapsulation was then calculated from the standard curve of growth inhibition of free paxlitaxel.
Paclitaxel-loaded microparticle activity on MBT-2 cells was also determined with no extraction process. […] After 3 days, cell proliferation was measured as described above.

MBT-2 cells [2] = assay: Observation of MBT-2 cells after incubation with free paclitaxel or particles (confocal microscope); type: cell-based; settings: 4.4×10^−5 M paclitaxel, observed on day 4
Method: Cells were also observed after incubation with free paclitaxel or particles. Cells were seeded on chambered cover-glasses (Labtek). After 1 day, free paclitaxel (4.4×10^−5 M) or particles (same concentration of paclitaxel) were added. Medium was replaced every day with free paclitaxel or medium only in the case of the particles. On day 4, cells were washed, fixed during 30 minutes with paraformaldehyde (2%) then observed with a confocal microscope (Zweiss Axiovert 100) for localization of particles.

[3] = test system: BBN-induced bladder cancer; assay: Antitumor activity on BBN-induced bladder cancer: survival and body weight; type: in vivo; settings: BBN mice
Method: (§1) Bladder cancer was induced in female Balb-c mice (8 weeks old) with the carcinogen BBN that was given as a 0.05% solution in the drinking water during 4 weeks. Mice were then treated intravesically (50 μL) with free paclitaxel ([…]) in Tween 80 5%), loaded particles (100 μg) or unloaded particle suspensions. Schedule of administration was the following: mice received the treatment every week during 4 weeks or every other week during 4 weeks. Body weights were recorded every week for all the animals. One week after the last instillation, all the animals were killed. Bladders were removed, weighed and fixed in paraformaldehyde 10% overnight then embedded in paraffin and sectioned.
The anti-cancer activity of paclitaxel encapsulated in microparticles of the invention was assayed against bladder cancer following intravesical instillation. Experimental bladder cancer was induced in female Balb/c mice with BBN, a carcinogenic compound that was added to the drinking water 4 weeks before starting the treatment we compared the same dose (100 μg) of free paclitaxel, encapsulated paclitaxel and non-loaded particles as a control (12 animals per group). Mice received the treatment either once a week or every other week for 4 weeks and number of surviving mice as well as body weight of mice were recorded every week. […]

[4] = test system: BBN-induced bladder cancer; assay: Histologic evaluation and BrdU proliferation index of bladder sections of BBN-mice; type: in vivo; settings: for Dysplasia (No) / HGTCC (No): number of animals; for CIS (No): number of animals with carcinoma in situ
Method: as §1
One week after the last instillation, all the animals were sacrificed and histologic evaluation was performed on haematoxilin and eosin stained sections (table 1). […] In the group treated with free paclitaxel once a week or every other week, CS was found in 5 cases (71°/b) and 7 cases (78%), respectively. On the contrary, no animal of 7 (0%) in the group treated with encapsulated paclitaxel once a week had CIS. Only 2 animals of 9 (22%) treated with particles every other week had CIS. In the groups treated with the paclitaxel, the urothelium was focally or predominantly denuded.
Proliferation index was calculated on these sections using the BrdU incroporation into proliferative cells. BrdU staining was localized in the nucleus with a fine granularity. Nuclei were considered BrdU positve if any nuclear staining was observed. The control group presented a proliferative index of 30% compared to the proliferative index of 10% in a normal urothelium. In all other groups, there was a high proliferative index, from about 35% in groups receiving encapsulated paclitaxel to 65% in groups receiving free paclitaxel.

[5] = 100 μg every other week for 4 weeks

CC(=O)O[C@H]1C(=O)[C@@]2(C)[C@H]([C@H](OC(=O)c3ccccc3)[C@]3(O)C[C@H](OC(=O)[C@H](O)[C@@H](NC(=O)c4ccccc4)c4ccccc4)C(C)=C1C3(C)C)[C@]1(OC(C)=O)CO[C@@H]1C[C@@H]2O [Free paclitaxel, Paclitaxel]
MBT-2 cell proliferation (MBT-2 cells [1]): decreased with an increased concentration | shape of the cells (MBT-2 cells [2]): modification of the shape of the cells was observed | survival rate ([3]; 100 μg intravesically every other week for 4 weeks): 82% | survival rate ([3]; 100 μg intravesically once a week for 4 weeks): 82% | CIS (%) [4, 5]: (78%) | Proliferative Index (%) ([4]; 100 μg every other week for 4 weeks, BrdU): 61% | CIS (%) ([4]; 100 μg every other week for 4 weeks, listed as free paclitaxel): 78% | Dysplasia (No) [4, 5]: 1 | HGTCC (No) [4, 5]: 1 | CIS (No) [4, 5]: 7 | CIS (%) ([4]; 100 μg once a week for 4 weeks): (71%) | Proliferative Index (%) ([4]; 100 μg once a week for 4 weeks, BrdU): 65% | CIS (%) ([4]; 100 μg once a week for 4 weeks, listed as free paclitaxel): 71% | Dysplasia (No) ([4]; 100 μg once a week for 4 weeks): 0 | HGTCC (No) ([4]; 100 μg once a week for 4 weeks): 1 | CIS (No) ([4]; 100 μg once a week for 4 weeks): 5 | effect on the incidence of CIS ([4]; 100 μg, BBN induced bladder cancer): almost no effect | proliferative index ([4]; BrdU, groups without stated schedule): 65%

CC(=O)O[C@H]1C(=O)[C@@]2(C)[C@H]([C@H](OC(=O)c3ccccc3)[C@]3(O)C[C@H](OC(=O)[C@H](O)[C@@H](NC(=O)c4ccccc4)c4ccccc4)C(C)=C1C3(C)C)[C@]1(OC(C)=O)CO[C@@H]1C[C@@H]2O [paclitaxel extracted]
MBT-2 cell proliferation (MBT-2 cells [1]): the same trend was observed
